Source: patent US7244731B2, “6-Methylpyridine derivatives, method for preparing thereof and antiviral pharmaceutical composition comprising the same” (B & C Biopharm, priority 2002, dated 2007)

How the values were obtained:
[1] = biological target: T1, HCV RNA polymerase (RNA dependent RNA polymerase, NS5B) (Hepatitis C virus genotype 1b, UniProt P26663); assay: Inhibitory effect on activity of recombinant HCV RNA polymerase in vitro; format: biochemical, Hepatitis C virus (HCV-1b type)
T1 construct: NS5B region (1773 bps) was amplified by PCR and cloned into pVLHIS; (His)6; made in house; host or cells: Sf9 insect cells infected with recombinant baculovirus (pVLHIS-NS5B)
T1 sequence (P26663 2420-3010): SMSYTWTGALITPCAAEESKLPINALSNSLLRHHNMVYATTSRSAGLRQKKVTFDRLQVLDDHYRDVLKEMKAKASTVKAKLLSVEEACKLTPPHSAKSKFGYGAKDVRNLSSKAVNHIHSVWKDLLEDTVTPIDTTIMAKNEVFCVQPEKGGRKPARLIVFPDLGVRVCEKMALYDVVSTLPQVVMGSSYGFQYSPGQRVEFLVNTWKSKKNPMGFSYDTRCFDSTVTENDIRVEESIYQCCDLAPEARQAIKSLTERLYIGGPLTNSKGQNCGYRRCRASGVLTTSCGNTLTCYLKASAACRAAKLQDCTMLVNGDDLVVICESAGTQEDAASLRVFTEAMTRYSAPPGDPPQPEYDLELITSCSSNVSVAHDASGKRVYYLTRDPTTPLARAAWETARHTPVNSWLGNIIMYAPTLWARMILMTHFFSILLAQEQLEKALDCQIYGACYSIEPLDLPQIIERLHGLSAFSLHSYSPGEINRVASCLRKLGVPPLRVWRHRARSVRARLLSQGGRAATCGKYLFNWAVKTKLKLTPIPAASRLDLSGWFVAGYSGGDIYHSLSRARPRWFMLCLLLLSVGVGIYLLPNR
Method: Test of Inhibitory Effect on Activity of HCV RNA Polymerase (RNA Dependent RNA Polymerase, NS5B) In Vitro
The following in vitro experiments were conducted to find out the effect of inhibition activity of compounds of the present invention against HCV RNA Polymerase (RNA dependent RNA polymerase, NS5B).
HCV cDNA was obtained from the blood of HCV-1b type HCV patient and NS5B region (1773 bps) was amplified by PCR and cloned into pVLHIS, a baculovirus transfer vector, to prepare recombinant transfer vector. The prepared transfer vector and the wild-type AcNPV vector were cotransfected into Sf 9 cell line to yield recombinant baculovirus with the histidine-tagged recombinant vector pVLHIS-NS5B. Sufficiently cultured insect cells were infected with the resulting recombinant baculovirus and cultured in Grace' medium containing 10% FBS for 3–4 days. The culture broth was centrifuged to obtain only the infected cells. The cells were washed three times with PBS and resuspended in binding buffer [50 mM Na-phosphate (pH 8.0), 30 mM NaCl, 10 mM imidazole, 1 mM DTT, 10% glycerol, 1% NP-40], sonicated and the clearized lysate was obtained. Recombinant NS5B was purified by affinity column chromatography using a Ni-NTA His bind resin (Novagen) to produce pure NS5B protein. The (His)6-tagged NS5B was bound to Ni-NTA resin and washed with the binding buffer containing 50 mM imidazole. The bound NS5B was eluted with the binding buffer containing imidazole in a step-gradient manner (100–300 mM). The NS5B protein fractions were dialyzed against buffer [50 mM Tris-HCl, 50 mM NaCl, 1 mM DTT, […], 10% glycerol], followed by at −70° C. in a small aliquot.
The 3′UTR cDNA (220 bp) of HCV was obtained from 1b HCV RNA of the blood of a hepatitis C patient by PCR and cloned into pcDNA3 vector. Linearized DNA fragment containing 3′-UTR was prepared using the restriction enzyme, EcoRI and used as a temperate for in vitro transcription using T7 RNA ploymerase to prepare RNA fragment containing 3′-UTR.
In Vitro inhibitory activity of the compounds of the present invention against recombinant HCV RNA polymerase was measured as follows.
A streptavidin-coated well plate was prepared suitable for the sample to be examined. 25 μl of 2× assay buffer [50 mM Tris-Cl (pH 7.5), 100 mM NaCl, 10 mM MgCl2, 20 mM KCl, 1 mM EDTA, 1 mM DTT] and 10 μl of purified HCV RNA polymerase 200 ng and 3′-UTR template RNA were added to each well. Then, 5 μl of the sample to be examined was added to have final concentrations of 10, 1, 0.1 and 0.01 μg/mL. […] The optical density (OD) was measured using an ELISA reader (Bio-Tek instrument Co.) at 405 nm. The inhibitory effect on the activity of HCV polymerase was calculated by subtracting the OD of the positive control without the sample.

[2] = Cytotoxicity assay (MTT assay); format: cell-based; conditions: human, HepG2 cells, HepG 2 cell line
Method: To find out cytotoxicity of 6-methylpyridine derivative of the chemical formula 1, an in vitro experiment was conducted on the basis of the generally known MTT assay using HepG 2 cell line.

## Cc1ccc(C(=O)O)c(Nc2ccc(N3CCOCC3)cc2)n1 [Example 1, 6-methyl-2-[4-(4-morpholino)anilino] nicotinic acid]
[1]; 0.01 μg/ml
  Inhibition of activity of HCV RNA polymerase (%): 46%
[1]; 0.1 μg/ml
  Inhibition of activity of HCV RNA polymerase (%): 65%
[1]; 1 μg/ml
  Inhibition of activity of HCV RNA polymerase (%): 82%
[1]; 10 μg/ml
  Inhibition of activity of HCV RNA polymerase (%): 99%
[2]
  CC50: > 100 µg/mL
